Measured values taken from patent publication US9670126B2, “Methods of making 15-hydroxy fatty acid derivatives” (Dignity Sciences Limited, priority 2013, dated 2017).

Experiments:
[1] = Heat stability trial of HETrE under solvent removal conditions (reflux in 40% MtBE:cyclohexane), UPLC; format: physicochemical
Description: (§1) Previously, neat HETrE heated at 50° C.
A heat stability trial was conducted where a solution of HETrE (˜9.1 g) in 500 mL 40% MtBE: cyclohexane was heated at 75° C. (external oil bath temperature) at 400 mbar vacuum (condenser coolant temperature −0° C.). This established a gentle reflux. The solution was protected from light. Samples were withdrawn at various time points, under a nitrogen atmosphere, and analysed by UPLC (252 nm) (FIG. 15).
The conditions were designed to mimic the likely conditions encountered on a plant scale solvent removal from pooled column fractions. […] The reflux was extended over a further 112 hours.

[2] = Neat HETrE heated at 50° C. under vacuum; format: physicochemical; conditions: under vacuum (1822-129-4E), 1 major impurity, ester formed with itself
Description: as §1

[3] = Solubility (reactor cleaning); conditions: residues
[4] = cited from earlier work
[5] = Storage stability of freeze dried enzyme, judged in the DGLA reaction; conditions: stored at ambient, atmospheric conditions for two weeks; then 1.8 Munits/g DGLA
Description: It was also observed that the freeze dried enzyme supplied had good stability. Although recommended to be stored at −20° C., and desiccated after use, the batch was stored at ambient, atmospheric conditions for two weeks before being utilised in a reaction using the optimised enzyme loadings (1.8 Munits/g DGLA). […] The reaction was carried out in buffer solution to maintain pH and solubilise reaction components. Cysteine, a mild reducing agent, was used in place of sodium borohydride. Use of cysteine enabled the oxidation/reduction reaction to be carried out in one step. In addition no flammable hydrogen was generated during reaction/quench. Furthermore, fewer over-oxidation products were produced, likely due to cysteine's anti-oxidant properties. It is also believed that the addition of the reducing agent at beginning of the process helps to lessen irreversible enzyme inactivation by high concentrations of hydroperoxide, thus leading to lower enzyme requirement (e.g., cost savings) and lower potential for over-oxidation.

CCCCC[C@H](O)/C=C/C=C\C/C=C\CCCCCCC(=O)O [15(S)-HETrE, 15-(S)-hydroxyeicosatrienoic acid]
degradation on extended refluxing ([1]; 4.5 days refluxing in 40% MtBE:cyclohexane, external temperature 75° C.): did not cause significant degradation | degradation under plant-typical solvent evaporation conditions ([1]; in solution and on hot surfaces, timescale of <2 days): no significant degradation | degradation of neat material [2]: showed degradation | solubility in alcohols such as ethanol and methanol, or acetone [3]: readily soluble

N[C@@H](CS)C(=O)O [Cysteine]
solubility in ethanol ([4]; 19° C.): 1.5 g/100 g of ethanol

N[C@@H](CSSC[C@H](N)C(=O)O)C(=O)O [cystine]
solubility in 1M HCl with heating ([4]; 1M HCl with heating): 50 g/L | solubility in basic solutions ([4]; basic solutions): soluble

B1: freeze dried enzyme: commercial freeze-dried soybean lipoxygenase (protein, UniProt P08170 1-839, looked up)
Seed linoleate …: MFSAGHKIKGTVVLMPKNELEVNPDGSAVDNLNAFLGRSVSLQLISATKADAHGKGKVGKDTFLEGINTSLPTLGAGESAFNIHFEWDGSMGIPGAFYIKNYMQVEFFLKSLTLEAISNQGTIRFVCNSWVYNTKLYKSVRIFFANHTYVPSETPAPLVSYREEELKSLRGNGTGERKEYDRIYDYDVYNDLGNPDKSEKLARPVLGGSSTFPYPRRGRTGRGPTVTDPNTEKQGEVFYVPRDENLGHLKSKDALEIGTKSLSQIVQPAFESAFDLKSTPIEFHSFQDVHDLYEGGIKLPRDVISTIIPLPVIKELYRTDGQHILKFPQPHVVQVSQSAWMTDEEFAREMIAGVNPCVIRGLEEFPPKSNLDPAIYGDQSSKITADSLDLDGYTMDEALGSRRLFMLDYHDIFMPYVRQINQLNSAKTYATRTILFLREDGTLKPVAIELSLPHSAGDLSAAVSQVVLPAKEGVESTIWLLAKAYVIVNDSCYHQLMSHWLNTHAAMEPFVIATHRHLSVLHPIYKLLTPHYRNNMNINALARQSLINANGIIETTFLPSKYSVEMSSAVYKNWVFTDQALPADLIKRGVAIKDPSTPHGVRLLIEDYPYAADGLEIWAAIKTWVQEYVPLYYARDDDVKNDSELQHWWKEAVEKGHGDLKDKPWWPKLQTLEDLVEVCLIIIWIASALHAAVNFGQYPYGGLIMNRPTASRRLLPEKGTPEYEEMINNHEKAYLRTITSKLPTLISLSVIEILSTHASDEVYLGQRDNPHWTSDSKALQAFQKFGNKLKEIEEKLVRRNNDPSLQGNRLGPVQLPYTLLYPSSEEGLTFRGIPNSISI
performance after storage [5]: No deterioration in performance
